Reference: patent publication US9273058B2 (BRISTOL-MYERS SQUIBB COMPANY, priority 2013, dated 2016)
Like-named read-outs stand apart in the source and are kept apart here.

Key:
CK1δ = CK1δ (Homo sapiens, UniProt P48730); assay: CK1δ kinase assay (Caliper LabChip electrophoretic separation of fluoresceinated peptide substrate and product); type: biochemical; conditions: 200 pM CK1δ, 50 μM ATP, 1.5 μM peptide, 22 hours at room temperature
Method in brief: (§1)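 Reactions ran 22 hours at room temperature and were stopped with EDTA. Phosphorylated product and unphosphorylated substrate were then separated electrophoretically. Compounds were tested at eleven concentrations, and IC50 values came from non-linear regression.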

CK1ε = CK1ε (Homo sapiens, UniProt P49674); assay: CK1ε kinase assay (Caliper LabChip electrophoretic separation of fluoresceinated peptide substrate and product); type: biochemical; conditions: 200 pM CK1ε, 50 μM ATP, 1.5 μM peptide, 22 hours at room temperature
Chain of CK1ε (P49674 whole entry): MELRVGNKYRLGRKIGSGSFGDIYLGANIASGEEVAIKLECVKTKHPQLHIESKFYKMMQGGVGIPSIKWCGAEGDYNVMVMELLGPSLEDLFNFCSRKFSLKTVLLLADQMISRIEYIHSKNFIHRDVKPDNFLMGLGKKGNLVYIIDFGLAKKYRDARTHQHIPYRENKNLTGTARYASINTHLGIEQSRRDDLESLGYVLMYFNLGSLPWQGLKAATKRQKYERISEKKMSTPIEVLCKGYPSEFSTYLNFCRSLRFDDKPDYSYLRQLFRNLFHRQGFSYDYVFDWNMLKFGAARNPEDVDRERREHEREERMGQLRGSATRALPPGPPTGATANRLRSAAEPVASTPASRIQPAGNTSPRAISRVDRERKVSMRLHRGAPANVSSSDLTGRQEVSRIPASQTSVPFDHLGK
Method in brief: as §1

Chain of CK1δ (P48730 whole entry): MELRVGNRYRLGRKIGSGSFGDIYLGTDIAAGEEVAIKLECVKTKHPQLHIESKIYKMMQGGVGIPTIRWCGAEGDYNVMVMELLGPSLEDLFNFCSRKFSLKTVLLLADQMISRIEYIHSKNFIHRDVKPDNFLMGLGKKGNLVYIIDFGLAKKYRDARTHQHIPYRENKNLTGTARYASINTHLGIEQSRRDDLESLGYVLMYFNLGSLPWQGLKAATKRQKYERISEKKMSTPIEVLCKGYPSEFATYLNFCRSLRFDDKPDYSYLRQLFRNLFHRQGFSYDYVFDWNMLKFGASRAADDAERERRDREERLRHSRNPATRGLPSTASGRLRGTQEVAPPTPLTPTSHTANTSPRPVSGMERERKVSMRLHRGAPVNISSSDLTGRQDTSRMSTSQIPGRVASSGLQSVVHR

| IC50 (CK1δ; read-out: CK1δ) | IC50 (CK1δ; read-out: CK1δ IC50 range) | IC50 (CK1ε; read-out: CK1ε) | IC50 (CK1ε; read-out: CK1ε IC50 range) | Structure (SMILES) |
| --- | --- | --- | --- | --- |
| 0.9 nM | 0.01 to 10 nM | 1.4 nM | 0.01 to 10 nM | NC(=O)c1c(-c2ccc(F)c(Cl)c2)nn2c1CN(C(=O)NC1CC(F)(F)C1)CC2 [Compound 291, 2-(3-Chloro-4-fluorophenyl)-N^5-(3,3-difluorocyclobutyl)-6,7-dihydropyrazolo[1,5-a]pyrazine-3,5(4H)-dicarboxamide] |
| – | 0.01 to 10 nM | – | 0.01 to 10 nM | NC(=O)c1c(-c2cccc(Cl)c2)nn2c1CN(C(=O)NC1CC3(C1)CC(F)(F)C3)CC2 [Compound 182, 2-(3-Chlorophenyl)-N^5-(6,6-difluorospiro[3.3]heptan-2-yl)-6,7-dihydropyrazolo[1,5-a] pyrazine-3,5(4H)-dicarboxamide] |
| – | 10 to 100 nM | – | 10 to 100 nM | NC(=O)c1c(-c2cccc(F)c2)nn2c1CN(C(=O)Nc1cccc3ccccc13)CC2 [Compound 52, 2-(3-Fluorophenyl)-N^5-(naphthalen-1-yl)-6,7-dihydropyrazolo[1,5-a]pyrazine-3,5(4H)-dicarboxamide] |
| – | 0.01 to 10 nM | – | 0.01 to 10 nM | CC(C)(C)NC(=O)N1Cc2c(C(N)=O)c(-c3ccc(F)c(Cl)c3)nn2C2(COC2)C1 [Compound A134, N^5′-(tert-Butyl)-2′-(3-chloro-4-fluorophenyl)-4′H-spiro[oxetane-3,7′-pyrazolo[1,5-a]pyrazine]-3′,5′(6′H)-dicarboxamide] |
| – | 0.01 to 10 nM | – | 0.01 to 10 nM | N#CC1(NC(=O)N2CCn3nc(-c4ccc(Cl)c(Cl)c4)c(C(N)=O)c3C2)CCOC1 (stereo not drawn) [compound 335] |
| 357 nM | 100 to 2000 nM | 444 nM | 100 to 2000 nM | CC(C)(C)NC(=O)N1CCn2nc(-c3ccc(C#N)cc3)c(C(N)=O)c2C1 [Compound 127, N^5-(tert-Butyl)-2-(4-cyanophenyl)-6,7-dihydropyrazolo[1,5-a] pyrazine-3,5(4H)-dicarboxamide] |
| – | 0.01 to 10 nM | – | 0.01 to 10 nM | C[C@H]1CN(C(=O)NC2CC(F)(F)C2)Cc2c(C(N)=O)c(-c3ccc(F)c(Cl)c3)nn21 [Compound A115, (S)-2-(3-Chloro-4-fluorophenyl)-N^5-(3,3-difluorocyclobutyl)-7-methyl-6,7-dihydropyrazolo[1,5-a]pyrazine-3,5(4H)-dicarboxamide] |
| – | 0.01 to 10 nM | – | 0.01 to 10 nM | CC(CF)(CF)NC(=O)N1CCn2nc(-c3ccc(F)c(Cl)c3)c(C(N)=O)c2C1 [Compound 209, 2-(3-Chloro-4-fluorophenyl)-N^5-(1,3-difluoro-2-methylpropan-2-yl)-6,7-dihydropyrazolo[1,5-a]pyrazine-3,5(4H)-dicarboxamide] |
| – | 0.01 to 10 nM | – | 0.01 to 10 nM | COC12CCC(NC(=O)N3CCn4nc(-c5cccc(Cl)c5)c(C(N)=O)c4C3)(CC1)C(F)(F)C2 [Compound A81, 2-(3-Chlorophenyl)-N^5-(2,2-difluoro-4-methoxybicyclo[2.2.2]octan-1-yl)-6,7-dihydropyrazolo[1,5-a]pyrazine-3,5(4H)-dicarboxamide] |
| – | 10 to 100 nM | – | 10 to 100 nM | NC(=O)c1c(-c2cccc(F)c2)nn2c1CN(C(=O)Nc1ccc(Cl)cc1Cl)CC2 [Compound 43, N^5-(2,4-Dichlorophenyl)-2-(3-fluorophenyl)-6,7-dihydropyrazolo[1,5-a]pyrazine-3,5(4H)-dicarboxamide] |
| – | 0.01 to 10 nM | – | 0.01 to 10 nM | CC1(NC(=O)N2CCn3nc(-c4ccc(F)c(Cl)c4)c(C(N)=O)c3C2)CC(F)(F)C1 [Compound 296, 2-(3-Chloro-4-fluorophenyl)-N^5-(3,3-difluoro-1-methylcyclobutyl)-6,7-dihydropyrazolo[1,5-a]pyrazine-3,5(4H)-dicarboxamide] |
| – | 0.01 to 10 nM | – | 0.01 to 10 nM | CC1(NC(=O)N2CCn3nc(-c4ccc(F)c(Cl)c4)c(C(N)=O)c3C2)CC2(C1)CC2(F)F (single isomer, unassigned) [Compound 326, 2-(3-Chloro-4-fluorophenyl)-N5-(1,1-difluoro-5-methylspiro[2.3]hexan-5-yl)-6,7-dihydropyrazolo[1,5-a]pyrazine-3,5(4H)-dicarboxamide] |
| – | 0.01 to 10 nM | – | 0.01 to 10 nM | NC(=O)c1c(-c2ccc(F)c(Cl)c2)nn2c1CN(C(=O)NC1CC(F)(F)C1)CC2C(F)(F)F (single isomer, unassigned) [Compound A126, 2-(3-Chloro-4-fluorophenyl)-N^5-(3,3-difluorocyclobutyl)-7-(trifluoromethyl)-6,7-dihydropyrazolo[1,5-a]pyrazine-3,5(4H)-dicarboxamide] |
| – | 0.01 to 10 nM | – | 0.01 to 10 nM | NC(=O)c1c(-c2ccc(Cl)c(Cl)c2)nn2c1CN(C(=O)N[C@H]1C[C@H](OC(F)(F)F)C1)CC2 [compound 265] |
| – | 10 to 100 nM | – | 100 to 2000 nM | NC(=O)c1c(-c2cccc(F)c2)nn2c1CN(C(=O)NCC(F)(F)F)CC2 [Compound 15, 2-(3-Fluorophenyl)-N^5-(2,2,2-trifluoroethyl)-6,7-dihydropyrazolo[1,5-a]pyrazine-3,5(4H)-dicarboxamide] |
| – | 100 to 2000 nM | – | 100 to 2000 nM | CC(C)(C)NC(=O)N1CCn2nc(-c3cccc(CNS(C)(=O)=O)c3)c(C(N)=O)c2C1 [Compound 135, N^5-(tert-Butyl)-2-(3-(methylsulfonamidomethyl)phenyl)-6,7-dihydropyrazolo [1,5-a]pyrazine-3,5(4H)-dicarboxamide] |
| – | 10 to 100 nM | – | 100 to 2000 nM | CC(C)(C)NC(=O)N1CCn2nc(-c3cc(F)cc(C#N)c3)c(C(N)=O)c2C1 [Compound 115, N^5-(tert-Butyl)-2-(3-cyano-5-fluorophenyl)-6,7-dihydropyrazolo[1,5-a] pyrazine-3,5(4H)-dicarboxamide] |
| – | 0.01 to 10 nM | – | 0.01 to 10 nM | CC1(NC(=O)N2Cc3c(C(N)=O)c(-c4ccc(Cl)c(Cl)c4)nn3C(CF)C2)CC(F)(F)C1 (stereo not drawn) [Compound A28, 2-(3,4-Dichlorophenyl)-N^5-(3,3-difluoro-1-methylcyclobutyl)-7-(fluoromethyl)-6,7-dihydropyrazolo[1,5-a]pyrazine-3,5(4H)-dicarboxamide] |
| – | 0.01 to 10 nM | – | 0.01 to 10 nM | N#Cc1ccc(C2(NC(=O)N3CCn4nc(-c5ccc(Cl)c(Cl)c5)c(C(N)=O)c4C3)CC(F)(F)C2)cc1 [Compound 316, N^5-(1-(4-Cyanophenyl)-3,3-difluorocyclobutyl)-2-(3,4-dichlorophenyl)-6,7-dihydropyrazolo[1,5-a]pyrazine-3,5(4H)-dicarboxamide] |
| – | 0.01 to 10 nM | – | 0.01 to 10 nM | CC1CN(C(=O)NC(C)(C)C)Cc2c(C(N)=O)c(-c3ccc(Cl)c(Cl)c3)nn21 (stereo not drawn) [Compound A34, N^5-(tert-Butyl)-2-(3,4-dichlorophenyl)-7-methyl-6,7-dihydropyrazolo[1,5-a]pyrazine-3,5(4H)-dicarboxamide] |
| – | 0.01 to 10 nM | – | 0.01 to 10 nM | CC1(NC(=O)N2CCn3nc(-c4ccc(F)c(Cl)c4)c(C(N)=O)c3C2)CC(C(F)F)C1 (single isomer, unassigned) [Compound 259, 2-(3-Chloro-4-fluorophenyl)-N^5-(3-(difluoromethyl)-1-methylcyclobutyl)-6,7-dihydropyrazolo[1,5-a]pyrazine-3,5(4H)-dicarboxamide] |
| – | 0.01 to 10 nM | – | 0.01 to 10 nM | NC(=O)c1c(-c2cccc(Cl)c2)nn2c1CN(C(=O)NC1CC3(C1)CC3(F)F)CC2 (single isomer, unassigned) [Compound 322, 2-(3-Chlorophenyl)-N^5-(1,1-difluorospiro[2.3]hexan-5-yl)-6,7-dihydropyrazolo[1,5-a]pyrazine-3,5(4H)-dicarboxamide] |
| – | 0.01 to 10 nM | – | 0.01 to 10 nM | NC(=O)c1c(-c2ccc(Cl)c(Cl)c2)nn2c1CN(C(=O)N[C@H]1C[C@@H](F)C1)CC2 [Compound 203, 2-(3,4-Dichlorophenyl)-N^5-((1s,3s)-3-fluorocyclobutyl)-6,7-dihydropyrazolo[1,5-a] pyrazine-3,5(4H)-dicarboxamide] |
| – | 0.01 to 10 nM | – | 0.01 to 10 nM | CC1(F)CC(C)(NC(=O)N2CCn3nc(-c4ccc(F)c(Cl)c4)c(C(N)=O)c3C2)C1 (stereo not drawn) [Compound 307, 2-(3-Chloro-4-fluorophenyl)-N^5-(3-fluoro-1,3-dimethylcyclobutyl)-6,7-dihydropyrazolo[1,5-a]pyrazine-3,5(4H)-dicarboxamide] |
| – | 0.01 to 10 nM | – | 0.01 to 10 nM | COc1ccc([C@H]2C[C@@H](NC(=O)N3CCn4nc(-c5ccc(Cl)c(Cl)c5)c(C(N)=O)c4C3)C2)cc1 [Compound 280, 2-(3,4-dichlorophenyl)-N^5-((1s,3s)-3-(4-methoxyphenyl)cyclobutyl)-6,7-dihydropyrazolo[1,5-a] pyrazine-3,5(4H)-dicarboxamide] |
| – | 0.01 to 10 nM | – | 0.01 to 10 nM | NC(=O)c1c(-c2cccc(Cl)c2)nn2c1CN(C(=O)N[C@H]1C[C@@H](F)C1)CC2 [Compound 176, 2-(3-Chlorophenyl)-N^5-((1s,3s)-3-fluorocyclobutyl)-6,7-dihydropyrazolo[1,5-a] pyrazine-3,5(4H)-dicarboxamide] |
| – | 100 to 2000 nM | – | 100 to 2000 nM | Cn1cc(-c2nn3c(c2C(N)=O)CN(C(=O)NC(C)(C)C)CC3)cn1 [Compound 153, N^5-(tert-Butyl)-2-(1-methyl-1H-pyrazol-4-yl)-6,7-dihydropyrazolo[1,5-a] pyrazine-3,5(4H)-dicarboxamide] |
| – | 10 to 100 nM | – | 10 to 100 nM | CC(C)(O)[C@@H]1CN(C(=O)NC2CC(F)(F)C2)Cc2c(C(N)=O)c(-c3ccc(F)c(Cl)c3)nn21 [Compound A19, (S)-2-(3-Chloro-4-fluorophenyl)-N^5-(3,3 - difluorocyclobutyl)-7-(2-hydroxypropan-2-yl)-6,7-dihydropyrazolo[1,5-a] pyrazine-3,5(4H)-dicarboxamide] |
